Data taken from publication PMC9234961 (Journal of Medicinal Chemistry, 2022).
Where two headings read alike, the source gives them in different places.

What was measured:
[1] = In vivo pharmacokinetic study in Balb/C mice; design: species or system mouse; conditions: for Vd: 1 mg/kg, read-out: Vss
ADORA2A = ADORA2A (Homo sapiens, UniProt P29274); experiment: SAFETYScan GPCR Calcium Flux, Agonist; type: cell-based
Source text: (§1) Supplement jm1c02175_si_002.xlsx, sheet "SAFETYScan" | column: RC50 (uM); Max Response

ADRA1A = biological target: T1, ADRA1A (Homo sapiens, UniProt P35348); experiment: SAFETYScan GPCR Calcium Flux, Agonist; type: cell-based
T1 sequence (P35348 1-466): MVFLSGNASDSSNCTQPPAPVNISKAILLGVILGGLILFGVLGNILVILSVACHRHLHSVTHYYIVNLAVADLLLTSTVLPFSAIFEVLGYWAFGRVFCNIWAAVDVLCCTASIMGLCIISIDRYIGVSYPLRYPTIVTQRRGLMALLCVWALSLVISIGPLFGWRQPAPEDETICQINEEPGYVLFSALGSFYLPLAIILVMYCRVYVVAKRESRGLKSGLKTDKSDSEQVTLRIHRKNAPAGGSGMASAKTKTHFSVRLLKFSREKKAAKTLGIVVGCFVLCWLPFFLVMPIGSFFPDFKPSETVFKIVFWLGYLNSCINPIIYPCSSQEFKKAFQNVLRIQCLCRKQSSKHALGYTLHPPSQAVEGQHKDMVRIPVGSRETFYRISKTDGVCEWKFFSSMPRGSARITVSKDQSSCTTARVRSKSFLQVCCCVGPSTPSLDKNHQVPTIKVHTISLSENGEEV
Source text: as §1

AVPR1A = AVPR1A (Homo sapiens, UniProt P37288); experiment: SAFETYScan GPCR Calcium Flux, Agonist; type: cell-based
Sequence of AVPR1A (P37288 whole entry): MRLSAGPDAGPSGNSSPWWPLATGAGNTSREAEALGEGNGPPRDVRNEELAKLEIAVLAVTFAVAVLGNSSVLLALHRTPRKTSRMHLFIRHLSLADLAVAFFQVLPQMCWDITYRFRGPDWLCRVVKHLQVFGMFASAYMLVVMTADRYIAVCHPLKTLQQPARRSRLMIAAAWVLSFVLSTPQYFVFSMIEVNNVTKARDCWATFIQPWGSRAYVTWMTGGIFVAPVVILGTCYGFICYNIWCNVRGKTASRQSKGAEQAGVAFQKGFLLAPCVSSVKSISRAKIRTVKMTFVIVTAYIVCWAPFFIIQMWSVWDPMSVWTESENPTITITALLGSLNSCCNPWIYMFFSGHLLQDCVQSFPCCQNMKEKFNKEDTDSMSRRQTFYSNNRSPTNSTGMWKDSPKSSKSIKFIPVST
Source text: as §1

CCKAR = biological target: T2, CCKAR (Homo sapiens, UniProt P32238); experiment: SAFETYScan GPCR Calcium Flux, Agonist; type: cell-based
T2 sequence (P32238 1-428): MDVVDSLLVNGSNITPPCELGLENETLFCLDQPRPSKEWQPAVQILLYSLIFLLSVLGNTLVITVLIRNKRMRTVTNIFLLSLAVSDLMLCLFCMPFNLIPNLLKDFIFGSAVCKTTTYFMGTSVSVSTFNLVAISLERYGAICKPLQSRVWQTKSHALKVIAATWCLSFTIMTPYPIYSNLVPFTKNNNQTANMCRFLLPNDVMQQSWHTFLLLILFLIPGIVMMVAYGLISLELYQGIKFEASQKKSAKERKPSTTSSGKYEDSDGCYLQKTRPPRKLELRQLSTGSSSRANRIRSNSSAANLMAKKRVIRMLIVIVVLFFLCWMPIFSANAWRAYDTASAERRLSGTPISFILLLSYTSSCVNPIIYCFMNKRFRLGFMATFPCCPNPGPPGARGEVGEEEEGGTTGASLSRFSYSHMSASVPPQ
Source text: as §1

CHRM1 = biological target: T3, CHRM1 (Homo sapiens, UniProt P11229); experiment: SAFETYScan GPCR Calcium Flux, Agonist; type: cell-based
T3 sequence (P11229 1-460): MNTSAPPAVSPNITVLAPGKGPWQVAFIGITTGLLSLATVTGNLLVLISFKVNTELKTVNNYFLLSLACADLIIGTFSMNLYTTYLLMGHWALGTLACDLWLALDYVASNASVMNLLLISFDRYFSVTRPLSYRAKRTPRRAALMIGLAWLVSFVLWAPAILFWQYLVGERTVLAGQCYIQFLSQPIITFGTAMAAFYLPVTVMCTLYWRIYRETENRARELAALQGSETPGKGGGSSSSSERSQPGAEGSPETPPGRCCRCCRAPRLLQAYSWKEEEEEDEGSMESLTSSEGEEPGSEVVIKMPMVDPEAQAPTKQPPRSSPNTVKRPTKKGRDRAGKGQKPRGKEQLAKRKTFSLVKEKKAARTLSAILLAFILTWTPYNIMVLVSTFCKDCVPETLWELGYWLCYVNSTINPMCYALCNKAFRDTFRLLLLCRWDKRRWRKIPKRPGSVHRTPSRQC
Source text: as §1

HRH1 = HRH1 (Homo sapiens, UniProt P35367); experiment: SAFETYScan GPCR Calcium Flux, Agonist; type: cell-based
Sequence of HRH1 (P35367 whole entry): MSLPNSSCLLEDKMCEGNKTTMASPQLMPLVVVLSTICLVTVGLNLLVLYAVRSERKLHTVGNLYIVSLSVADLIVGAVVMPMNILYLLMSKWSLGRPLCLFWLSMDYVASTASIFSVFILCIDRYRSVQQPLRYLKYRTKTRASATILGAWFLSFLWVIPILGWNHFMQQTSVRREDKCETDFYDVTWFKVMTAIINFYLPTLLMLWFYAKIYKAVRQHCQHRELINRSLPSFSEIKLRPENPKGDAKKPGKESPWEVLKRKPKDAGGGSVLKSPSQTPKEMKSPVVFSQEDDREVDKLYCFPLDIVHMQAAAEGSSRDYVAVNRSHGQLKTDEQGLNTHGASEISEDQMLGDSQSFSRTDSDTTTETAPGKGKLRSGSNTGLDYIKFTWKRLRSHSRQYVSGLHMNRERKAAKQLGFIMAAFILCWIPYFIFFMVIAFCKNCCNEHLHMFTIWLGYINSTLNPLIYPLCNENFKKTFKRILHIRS
Source text: as §1

HTR2B = biological target: T4, HTR2B (Homo sapiens, UniProt P41595); experiment: SAFETYScan GPCR Calcium Flux, Agonist; type: cell-based
T4 construct: expressed in transfected cells
T4 sequence (P41595 whole entry): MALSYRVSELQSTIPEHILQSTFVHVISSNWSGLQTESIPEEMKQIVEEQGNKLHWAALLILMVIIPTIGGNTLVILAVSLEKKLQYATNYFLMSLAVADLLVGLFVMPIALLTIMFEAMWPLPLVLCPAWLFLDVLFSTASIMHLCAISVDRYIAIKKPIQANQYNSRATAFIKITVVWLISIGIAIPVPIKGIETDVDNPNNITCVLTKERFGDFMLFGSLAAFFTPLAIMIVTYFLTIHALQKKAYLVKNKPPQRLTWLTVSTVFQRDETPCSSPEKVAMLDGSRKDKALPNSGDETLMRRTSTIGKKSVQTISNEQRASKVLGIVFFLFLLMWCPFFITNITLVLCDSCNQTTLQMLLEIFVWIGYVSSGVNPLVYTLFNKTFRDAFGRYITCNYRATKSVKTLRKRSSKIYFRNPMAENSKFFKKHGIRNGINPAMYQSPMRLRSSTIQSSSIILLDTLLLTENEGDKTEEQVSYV
Source text: as §1

ADRB1 = biological target: T5, ADRB1 (Homo sapiens, UniProt P08588); experiment: SAFETYScan GPCR cAMP, Antagonist; type: cell-based
T5 construct: expressed in transfected cells
T5 sequence (P08588 whole entry): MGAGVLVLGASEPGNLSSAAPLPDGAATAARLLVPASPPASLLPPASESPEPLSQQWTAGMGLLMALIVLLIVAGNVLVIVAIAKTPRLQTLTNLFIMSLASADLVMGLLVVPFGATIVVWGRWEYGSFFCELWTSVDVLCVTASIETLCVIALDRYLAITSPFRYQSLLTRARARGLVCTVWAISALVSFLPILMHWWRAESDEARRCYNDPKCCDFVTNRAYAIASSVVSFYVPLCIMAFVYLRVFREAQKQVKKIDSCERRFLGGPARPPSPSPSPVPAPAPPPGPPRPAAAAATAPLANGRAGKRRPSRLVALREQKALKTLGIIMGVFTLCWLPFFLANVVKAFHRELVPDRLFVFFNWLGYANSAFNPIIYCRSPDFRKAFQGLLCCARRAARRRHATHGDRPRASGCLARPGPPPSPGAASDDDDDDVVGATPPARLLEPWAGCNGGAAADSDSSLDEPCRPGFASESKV
Source text: as §1

CHRM2 = biological target: T6, CHRM2 (Homo sapiens, UniProt P08172); experiment: SAFETYScan GPCR cAMP, Antagonist; type: cell-based
T6 construct: expressed in transfected cells
T6 sequence (P08172 1-466): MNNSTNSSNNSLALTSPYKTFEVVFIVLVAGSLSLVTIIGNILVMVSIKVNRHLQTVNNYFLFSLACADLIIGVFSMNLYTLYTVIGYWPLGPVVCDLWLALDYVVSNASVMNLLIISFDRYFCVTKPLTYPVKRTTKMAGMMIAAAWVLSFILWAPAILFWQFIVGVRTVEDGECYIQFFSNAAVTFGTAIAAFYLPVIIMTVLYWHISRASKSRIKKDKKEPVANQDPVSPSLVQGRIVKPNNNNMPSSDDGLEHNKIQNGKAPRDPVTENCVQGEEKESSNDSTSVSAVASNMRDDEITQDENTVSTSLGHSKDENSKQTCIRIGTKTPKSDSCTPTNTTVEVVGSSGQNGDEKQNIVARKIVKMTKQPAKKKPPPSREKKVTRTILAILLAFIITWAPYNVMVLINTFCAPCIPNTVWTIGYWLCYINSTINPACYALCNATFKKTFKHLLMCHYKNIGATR
Source text: as §1

CNR1 = biological target: T7, CNR1 (Homo sapiens, UniProt P21554); experiment: SAFETYScan GPCR cAMP, Antagonist; type: cell-based
T7 construct: expressed in transfected cells
T7 sequence (P21554 whole entry): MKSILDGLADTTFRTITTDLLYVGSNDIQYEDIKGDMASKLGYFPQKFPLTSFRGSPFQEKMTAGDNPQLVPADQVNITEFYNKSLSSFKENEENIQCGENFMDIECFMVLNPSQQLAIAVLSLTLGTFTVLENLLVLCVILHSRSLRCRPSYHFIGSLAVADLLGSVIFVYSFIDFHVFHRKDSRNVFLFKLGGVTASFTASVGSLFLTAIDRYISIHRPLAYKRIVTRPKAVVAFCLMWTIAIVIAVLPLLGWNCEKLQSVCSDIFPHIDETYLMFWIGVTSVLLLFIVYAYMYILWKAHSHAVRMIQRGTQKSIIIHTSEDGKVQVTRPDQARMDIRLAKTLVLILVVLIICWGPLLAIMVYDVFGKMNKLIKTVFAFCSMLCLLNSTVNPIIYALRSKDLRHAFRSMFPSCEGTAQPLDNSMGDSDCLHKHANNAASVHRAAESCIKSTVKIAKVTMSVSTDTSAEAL
Source text: as §1

OPRK1 = OPRK1 (Homo sapiens, UniProt P41145); experiment: SAFETYScan GPCR cAMP, Antagonist; type: cell-based
Sequence of OPRK1 (P41145 whole entry, species assumed): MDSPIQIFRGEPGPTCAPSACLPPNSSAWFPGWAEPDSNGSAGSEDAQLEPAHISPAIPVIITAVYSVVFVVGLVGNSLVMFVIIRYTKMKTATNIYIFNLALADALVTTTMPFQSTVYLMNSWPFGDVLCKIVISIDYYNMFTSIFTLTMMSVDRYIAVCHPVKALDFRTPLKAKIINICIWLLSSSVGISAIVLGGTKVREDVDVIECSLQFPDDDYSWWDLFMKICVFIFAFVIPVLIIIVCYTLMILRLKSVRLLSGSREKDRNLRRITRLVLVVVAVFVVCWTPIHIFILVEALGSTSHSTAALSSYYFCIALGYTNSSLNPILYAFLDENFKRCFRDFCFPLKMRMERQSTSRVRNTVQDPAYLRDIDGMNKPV
Source text: as §1

OPRM1 = OPRM1 (Homo sapiens, UniProt P35372); experiment: SAFETYScan GPCR cAMP, Antagonist; type: cell-based
Sequence of OPRM1 (P35372 whole entry, species assumed): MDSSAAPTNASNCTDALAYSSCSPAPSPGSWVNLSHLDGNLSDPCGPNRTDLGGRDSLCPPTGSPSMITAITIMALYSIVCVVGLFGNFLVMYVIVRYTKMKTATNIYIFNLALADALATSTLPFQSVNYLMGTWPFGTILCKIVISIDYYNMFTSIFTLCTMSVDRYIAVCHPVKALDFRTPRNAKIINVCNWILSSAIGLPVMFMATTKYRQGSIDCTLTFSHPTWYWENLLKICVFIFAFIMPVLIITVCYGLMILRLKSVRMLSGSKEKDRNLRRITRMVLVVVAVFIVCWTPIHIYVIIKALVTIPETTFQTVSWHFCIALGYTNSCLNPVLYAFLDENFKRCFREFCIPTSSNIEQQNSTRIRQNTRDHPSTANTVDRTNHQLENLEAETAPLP
Source text: as §1

OCI-Ly1 = experiment: Cell proliferation assay (14 days), OCI-Ly1
Protocol: Cells were seeded in 96-well culture plates at a density of 2500 cells/well in RPMI-1640 medium (Sigma-
Aldrich) supplemented with 10% FBS (Gibco). Compounds were initially dispensed into 96-well U-bottom
plates using an Echo 550 acoustic dispenser (Labcyte Inc.), then diluted in RPMI-1640 medium and
transferred onto the cells. Cells were treated with 8 compound concentrations in duplicate, ranging from
with compound for 14 days, with medium changes at days 3, 7 and 10 carried out as follows: fresh 96-well
cell culture plates were prepared containing 100 µl medium plus compound at the assay concentrations
(white plates were used on day 10 to optimise luminescence measurement). Assay plates containing cells
were vortexed to mix and cell density in one control well was counted using a Coulter Z2 cell counter
(Beckman Coulter). The volume of medium containing 2500 cells in the control well was calculated and this volume of cells was transferred from every well of the assay plates to the corresponding well of the fresh plates containing compound. After 14 days, CellTiter Glo reagent (Promega) was added to the medium in each well of the assay plate at a ratio of 1:2, mixed on a plate shaker, then incubated at room temperature for 10 minutes. Luminescence was measured using an Envision plate reader (Perkin Elmer) and the relative luminescence at each compound concentration, compared to DMSO alone, was calculated. GI50 were determined using a 4-parameter curve fit in Dotmatics (Bishops Stortford, UK).

Sequence of ADORA2A (P29274 whole entry): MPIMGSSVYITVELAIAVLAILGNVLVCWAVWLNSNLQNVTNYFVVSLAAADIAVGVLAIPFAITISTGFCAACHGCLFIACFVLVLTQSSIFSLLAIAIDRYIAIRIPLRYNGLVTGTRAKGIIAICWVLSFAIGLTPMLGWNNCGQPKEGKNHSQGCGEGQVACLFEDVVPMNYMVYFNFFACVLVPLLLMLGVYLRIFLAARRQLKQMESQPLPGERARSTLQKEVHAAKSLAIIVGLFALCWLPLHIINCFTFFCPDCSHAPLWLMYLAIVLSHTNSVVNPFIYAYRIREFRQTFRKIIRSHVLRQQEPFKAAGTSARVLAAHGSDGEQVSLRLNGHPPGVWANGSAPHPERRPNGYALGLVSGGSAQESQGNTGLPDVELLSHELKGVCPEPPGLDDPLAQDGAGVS

C[C@H]1C[C@@H](O)CN(c2ncc(Cl)c(Nc3ccc4c(c3)c3c(c(=O)n4C)OCC(F)(F)[C@H](C4CC4)N3)n2)C1 [12a CCT373566, (S)-10-((5-Chloro-2-((3R,5S)-3-hydroxy-5-methylpiperidin-1-yl)pyrimidin-4-yl)amino)-2-cyclopropyl-3,3-difluoro-7-methyl-1,2,3,4-tetrahydro-[1,4]oxazepino[2,3-c]quinolin-6(7H)-one]
appearance of mice after dosing ([1]; 1 mg/kg i.v. and 5 mg/kg p.o., female Balb/C mice, after dosing and 24 h after dosing): appeared normal
increase in free concentration/exposure in vivo compared to CCT369260 ([1]; 5 mg/kg po, BALB/c mice): over fivefold increase
Vd ([1]; Balb/C, mouse, whole blood, intravenous, initial PK studies): 0.47 L/kg
CL as % Qh ([1]; female Balb/C mice): 6 % Qh
bioavailability ([1]; female, Balb/C, mouse, in vivo, po, 5 mg/kg): 44%
Vd ([1]; mouse, in vivo, female Balb/C mice): 0.47 L/kg
clearance ([1]; mouse, in vivo, iv, female Balb/C mice, 1 mg/kg i.v.): 5.7 mL/min/kg
half-life at 6 h ([1]; mouse, in vivo, po, 5 mg/kg, female Balb/C mice): 1.15 h
Cmax ([1]; mouse, in vivo, female Balb/C mice, 1 mg/kg i.v. and 5 mg/kg p.o.): 3.95 µM
CLu ([1]; unbound clearance, female Balb/C mice): 4670 mL/min/kg
Emax (ADORA2A; read-out: Max Response): 0%
EC50 (ADORA2A; read-out: RC50 (EC50)): > 10 µM
Emax (ADRA1A; read-out: Max Response): 5.05%
EC50 (ADRA1A; read-out: RC50 (EC50)): > 10 µM
Emax (AVPR1A; read-out: Max Response): 4.09%
EC50 (AVPR1A; read-out: RC50 (EC50)): > 10 µM
Emax (CCKAR; read-out: Max Response): 2.17%
EC50 (CCKAR; read-out: RC50 (EC50)): > 10 µM
Emax (CHRM1; read-out: Max Response): 3.12%
EC50 (CHRM1; read-out: RC50 (EC50)): > 10 µM
Emax (HRH1; read-out: Max Response): 1.78%
EC50 (HRH1; read-out: RC50 (EC50)): > 10 µM
Emax (HTR2B; read-out: Max Response): 1.98%
EC50 (HTR2B; read-out: RC50 (EC50)): > 10 µM
Emax (ADRB1; read-out: Max Response): 57.3%
IC50 (ADRB1; read-out: RC50 (IC50)): > 10 µM
Emax (CHRM2; read-out: Max Response): 30.1%
IC50 (CHRM2; read-out: RC50 (IC50)): > 10 µM
Emax (CNR1; read-out: Max Response): 1.95%
IC50 (CNR1; read-out: RC50 (IC50)): > 10 µM
Emax (OPRK1; read-out: Max Response): 1.28%
IC50 (OPRK1; read-out: RC50 (IC50)): > 10 µM
Emax (OPRM1; read-out: Max Response): 9.16%
IC50 (OPRM1; read-out: RC50 (IC50)): > 10 µM
OCI-Ly1 GI50 (OCI-Ly1; 14-day proliferation assay): Very potent growth inhibition
GI50 (OCI-Ly1; Homo sapiens, OCI-Ly1, 336 h, read-out: OCI-Ly1 GI50): 0.0021 µM
